Reference: patent US9695155B2, “Herbicidal substituted pyrimidinyloxy benzene compounds” (E. I. DU PONT DE NEMOURS AND COMPANY, priority 2013, dated 2017)

Assays:
barnyardgrass [1] = assay: Test F preemergence; assay type: in vivo, Echinochloa crus-galli; settings: 21 days, scale 0 to 100
Summary of the method: (§1)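 Loam/sand mix; preemergence spray, non-phytotoxic solvent + surfactant; greenhouse 21 d; visual injury vs untreated, 0 (none)–100 (complete control).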

kochia = assay: Test E postemergence; assay type: in vivo, Kochia scoparia
Text: (§2) Seeds of plant species selected from corn (Zea mays), soybean (Glycine max), velvetleaf (Abutilon theophrasti), lambsquarters (Chenopodium album), wild poinsettia (Euphorbia heterophylla), palmer pigweed (Amaranthus palmeri), waterhemp (common waterhemp, Amaranthus rudis), surinam grass (Brachiaria decumbens), large (Lg) crabgrass (Digitaria sanguinalis), Brazilian crabgrass (Digitaria horizontalis), fall panicum (Panicum dichotomiflorum), giant foxtail (Setaria faberii), green foxtail (Setaria viridis), goosegrass (Eleusine indica), johnsongrass (Sorghum halepense), ragweed (common ragweed, Ambrosia elatior), barnyardgrass (Echinochloa crus-galli), sandbur (southern sandbur, Cenchrus echinatus), arrowleaf sida (Sida rhombifolia), Italian ryegrass (Lolium multiflorum), dayflower (Virginia (VA) dayflower, Commelina virginica), field bindweed (Convolvulus arvensis), morningglory (Ipomoea coccinea), nightshade (eastern black nightshade, Solanum ptycanthum), kochia (Kochia scoparia), yellow nutsedge (Cyperus esculentus), cocklebur (common cocklebur, Xanthium strumarium), smartweed (ladysthumb smartweed, and hairy beggarticks (Bidens pilosa), were planted into a silt loam soil and treated preemergence with test chemicals formulated in a non-phytotoxic solvent mixture which included a surfactant.
(§3) At the same time, plants from these crop and weed species and also horseweed (Canada horseweed, Conyza canadensis), waterhemp_RES1, (ALS & Triazine resistant common waterhemp, Amaranthus rudis), and waterhemp_RES2, (ALS & HPPD resistant common waterhemp, Amaranthus rudis) were planted in pots containing Redi-Earth® planting medium (Scotts Company, 14111 Scottslawn Road, Marysville, Ohio 43041) comprising spaghnum peat moss, vermiculite, wetting agent and starter nutrients were treated with postemergence applications of test chemicals formulated in the same manner. Plants ranged in height from 2 to 18 cm for postemergence treatments (1- to 4-leaf stage). Treated plants and controls were maintained in a greenhouse for 14 to 21 days, after which time all species were compared to controls and visually evaluated. Plant response ratings, summarized in Table E, are based on a scale of 0 to 100 where 0 is no effect and 100 is complete control. A dash (-) response means no test result.

buckwheat, wild = assay: Test F preemergence; assay type: in vivo, Polygonum convolvulus; settings: 21 days, scale 0 to 100
Summary of the method: as §1

barnyardgrass [2] = assay: Test E postemergence; assay type: in vivo, Echinochloa crus-galli
Text: as §2, §3

wild buckwheat = assay: Test D preemergence; assay type: in vivo, Polygonum convolvulus
Summary of the method: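 Visual rating vs untreated controls, 0 = no effect, 100 = complete control, taken 7–21 d after treatment. Pre: silt loam soil. Post: potting medium, plants 2–18 cm, 1–4 leaf. Formulation: non-phytotoxic solvent mix + surfactant.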

windgrass [3] = assay: Test D postemergence; assay type: in vivo, Apera spica-venti
Text: (§4) Seeds of plant species selected from bluegrass (annual bluegrass, Poa annua), blackgrass (Alopecurus myosuroides), canarygrass (littleseed canarygrass, Phalaris minor), chickweed (common chickweed, Stellaria media), galium (catchweed bedstraw, Galium aparine), bromegrass, downy (downy bromegrass, Bromus tectorum), field poppy (Papaver rhoeas), field violet (Viola arvensis), green foxtail (Setaria viridis), deadnettle (henbit deadnettle, Lamium amplexicaule), Italian ryegrass (Lolium multiflorum), kochia (Kochia scoparia), lambsquarters (Chenopodium album), oilseed rape (Brassica napus), pigweed (Amaranthus retroflexus), chamomile (scentless chamomile, Matricaria inodora), Russian thistle (Salsola kali), speedwell (bird's-eye speedwell, Veronica persica), spring barley (Hordeum vulgare), spring wheat (Triticum aestivum), wild buckwheat (Polygonum convolvulus), wild mustard (Sinapis arvensis), wild oat (Avena fatua), wild radish (Raphanus raphanistrum), windgrass (Apera spica-venti), winter barley (Hordeum vulgare), and winter wheat (Triticum aestivum) were planted into a silt loam soil and treated preemergence with test chemicals formulated in a non-phytotoxic solvent mixture which included a surfactant.
(§5) At the same time, these species were planted in pots containing Redi-Earth® planting medium (Scotts Company, 14111 Scottslawn Road, Marysville, Ohio 43041) comprising spaghnum peat moss, vermiculite, wetting agent and starter nutrients and treated with postemergence applications of the test chemicals formulated in the same manner. Plants ranged in height from 2 to 18 cm (1- to 4-leaf stage). Treated plants and controls were maintained in a controlled growth environment for 7 to 21 days after which time all species were compared to controls and visually evaluated. Plant response ratings, summarized in Table D, are based on a scale of 0 to 100 where 0 is no effect and 100 is complete control. A dash (-) response means no test result.

chamomile = assay: Test D preemergence; assay type: in vivo, Matricaria inodora
Text: as §4, §5

windgrass [4] = assay: Test D preemergence; assay type: in vivo, Apera spica-venti
Text: as §4, §5

deadnettle = assay: Test D preemergence; assay type: in vivo, Lamium amplexicaule
Text: as §4, §5

[5] = Postemergence, 31 g ai/ha, scale 0 to 100
[6] = Postemergence, 62 g ai/ha, scale 0 to 100
[7] = Postemergence, 125 g ai/ha, scale 0 to 100
[8] = postemergence, 16 g ai/ha, scale 0 to 100, 0 no effect, 100 complete control
[9] = Echinochloa crus-galli, post-emergence, Postemergence, 31 g ai/ha, scale 0 to 100, read-out: Plant response rating, Barnyardgrass
[10] = Echinochloa crus-galli, post-emergence, Postemergence, 62 g ai/ha, scale 0 to 100, read-out: Plant response rating, Barnyardgrass
[11] = Echinochloa crus-galli, post-emergence, Postemergence, 125 g ai/ha, scale 0 to 100, read-out: Plant response rating, Barnyardgrass
[12] = Echinochloa crus-galli, post-emergence, postemergence, 16 g ai/ha, scale 0 to 100, 0 no effect, 100 complete control, read-out: Plant response rating, Barnyardgrass
[13] = 16 g ai/ha, scale 0 (no effect) to 100 (complete control)

N#Cc1cccc(Oc2ncc(F)cn2)c1-n1cc(C(F)(F)F)cn1 [Compound 79, 3-[(5-fluoro-2-pyrimidinyl)oxy]-2-[4-(trifluoromethyl)-1H-pyrazol-1-yl]benzonitrile]
Plant response rating, Barnyardgrass (barnyardgrass [1]; 16 g ai/ha): 75 | Plant response rating, Barnyardgrass (barnyardgrass [1]; 31 g ai/ha): 100 | Plant response rating, Barnyardgrass (barnyardgrass [1]; 62 g ai/ha): 100 | Plant response rating, Barnyardgrass (barnyardgrass [1]; 125 g ai/ha): 100 | Plant response rating, Barnyardgrass (barnyardgrass [1]; 250 g ai/ha): 100 | Plant response rating, Kochia (kochia; [5]): 70 | Plant response rating, Kochia (kochia; [6]): 80 | Plant response rating, Kochia (kochia; [7]): 75 | Plant response rating, Kochia (kochia; [8]): 50 | Plant response rating, Buckwheat, Wild (buckwheat, wild; 16 g ai/ha): 98 | Plant response rating, Buckwheat, Wild (buckwheat, wild; 31 g ai/ha): 100 | Plant response rating, Buckwheat, Wild (buckwheat, wild; 62 g ai/ha): 100 | Plant response rating, Buckwheat, Wild (buckwheat, wild; 125 g ai/ha): 100 | Plant response rating, Buckwheat, Wild (buckwheat, wild; 250 g ai/ha): 100 | pest or weed control at 31 g/ha (barnyardgrass [2]; [9]): 0% | pest or weed control at 62 g/ha (barnyardgrass [2]; [10]): 10% | pest or weed control at 125 g/ha (barnyardgrass [2]; [11]): 20% | pest or weed control at 16 g/ha (barnyardgrass [2]; [12]): 0%

Clc1cnc(Oc2cccc(Cl)c2-n2cc(I)cn2)nc1 [Compound 181]
Plant response rating, Kochia (kochia; [5]): 60 | Plant response rating, Kochia (kochia; [6]): 50 | Plant response rating, Kochia (kochia; [7]): 90 | Plant response rating, Kochia (kochia; [8]): 35 | Plant response rating, Barnyardgrass (barnyardgrass [2]; [5]): 20 | Plant response rating, Barnyardgrass (barnyardgrass [2]; [6]): 15 | Plant response rating, Barnyardgrass (barnyardgrass [2]; [7]): 25 | Plant response rating, Barnyardgrass (barnyardgrass [2]; [8]): 10

FCc1cccc(Oc2ncc(Cl)cn2)c1-n1cc(I)cn1 [Compound 245]
Plant response rating, Buckwheat, Wild (wild buckwheat; [13]): 25 | Plant response rating, Buckwheat, Wild (wild buckwheat; 31 g ai/ha, scale 0-100): 0 | Plant response rating, Buckwheat, Wild (wild buckwheat; 62 g ai/ha, scale 0-100): 25 | Plant response rating, Buckwheat, Wild (wild buckwheat; 125 g ai/ha, scale 0-100): 35 | Plant response rating, Windgrass (windgrass [3]; 16 g ai/ha, scale 0-100): 10 | Plant response rating, Windgrass (windgrass [3]; 31 g ai/ha, scale 0 to 100 (0 no effect, 100 complete control)): 15 | Plant response rating, Windgrass (windgrass [3]; 62 g ai/ha, scale 0 to 100 (0 no effect, 100 complete control)): 15 | Plant response rating, Windgrass (windgrass [3]; 125 g ai/ha, scale 0 to 100 (0 no effect, 100 complete control)): 25 | Plant response rating, Chamomile (chamomile; [13]): 25 | Plant response rating, Chamomile (chamomile; 31 g ai/ha, scale 0-100): 30 | Plant response rating, Chamomile (chamomile; 62 g ai/ha, scale 0-100): 55 | Plant response rating, Chamomile (chamomile; 125 g ai/ha, scale 0-100): 100 | Plant response rating, Windgrass (windgrass [4]; [13]): 5 | Plant response rating, Windgrass (windgrass [4]; 31 g ai/ha, scale 0 (no effect) to 100 (complete control)): 15 | Plant response rating, Windgrass (windgrass [4]; 125 g ai/ha, scale 0-100): 60 | Plant response rating, Deadnettle (deadnettle; [13]): 0 | Plant response rating, Deadnettle (deadnettle; 31 g ai/ha, scale 0-100): 0 | Plant response rating, Deadnettle (deadnettle; 62 g ai/ha, scale 0-100): 0 | Plant response rating, Deadnettle (deadnettle; 125 g ai/ha, scale 0-100): 15

N#Cc1cccc(Oc2ncc(Cl)cn2)c1-n1cc(OCC(F)(F)F)cn1 [Compound 274, 3-[(5-chloro-2-pyrimidinyl)oxy]-2-[4-(2,2,2-trifluoroethoxy)-1H-pyrazol-1-yl]benzonitrile]
pest or weed control at 16 g/ha (wild buckwheat; Fallopia convolvulus, pre-emergence, 16 g ai/ha, scale 0 (no effect) to 100 (complete control), read-out: Plant response rating, Buckwheat, Wild): 10% | pest or weed control at 31 g/ha (wild buckwheat; Fallopia convolvulus, pre-emergence, 31 g ai/ha, scale 0-100, read-out: Plant response rating, Buckwheat, Wild): 100% | pest or weed control at 62 g/ha (wild buckwheat; Fallopia convolvulus, pre-emergence, 62 g ai/ha, scale 0-100, read-out: Plant response rating, Buckwheat, Wild): 100% | pest or weed control at 125 g/ha (wild buckwheat; Fallopia convolvulus, pre-emergence, 125 g ai/ha, scale 0-100, read-out: Plant response rating, Buckwheat, Wild): 100% | Plant response rating, Barnyardgrass (barnyardgrass [1]; 16 g ai/ha): 75 | Plant response rating, Barnyardgrass (barnyardgrass [1]; 31 g ai/ha): 100 | Plant response rating, Barnyardgrass (barnyardgrass [1]; 62 g ai/ha): 100 | Plant response rating, Barnyardgrass (barnyardgrass [1]; 125 g ai/ha): 100 | Plant response rating, Barnyardgrass (barnyardgrass [1]; 250 g ai/ha): 100 | pest or weed control at 16 g/ha (windgrass [3]; Apera spica-venti, post-emergence, 16 g ai/ha, scale 0-100, read-out: Plant response rating, Windgrass): 15% | pest or weed control at 31 g/ha (windgrass [3]; Apera spica-venti, post-emergence, 31 g ai/ha, scale 0 to 100 (0 no effect, 100 complete control), read-out: Plant response rating, Windgrass): 25% | pest or weed control at 62 g/ha (windgrass [3]; Apera spica-venti, post-emergence, 62 g ai/ha, scale 0 to 100 (0 no effect, 100 complete control), read-out: Plant response rating, Windgrass): 35% | pest or weed control at 125 g/ha (windgrass [3]; Apera spica-venti, post-emergence, 125 g ai/ha, scale 0 to 100 (0 no effect, 100 complete control), read-out: Plant response rating, Windgrass): 35% | pest or weed control at 16 g/ha (chamomile; Tripleurospermum inodorum, pre-emergence, 16 g ai/ha, scale 0 (no effect) to 100 (complete control), read-out: Plant response rating, Chamomile): 5% | pest or weed control at 62 g/ha (chamomile; Tripleurospermum inodorum, pre-emergence, 62 g ai/ha, scale 0-100, read-out: Plant response rating, Chamomile): 35% | pest or weed control at 125 g/ha (chamomile; Tripleurospermum inodorum, pre-emergence, 125 g ai/ha, scale 0-100, read-out: Plant response rating, Chamomile): 65% | pest or weed control at 16 g/ha (windgrass [4]; Apera spica-venti, pre-emergence, 16 g ai/ha, scale 0 (no effect) to 100 (complete control), read-out: Plant response rating, Windgrass): 20% | pest or weed control at 31 g/ha (windgrass [4]; Apera spica-venti, pre-emergence, 31 g ai/ha, scale 0 (no effect) to 100 (complete control), read-out: Plant response rating, Windgrass): 90% | pest or weed control at 125 g/ha (windgrass [4]; Apera spica-venti, pre-emergence, 125 g ai/ha, scale 0-100, read-out: Plant response rating, Windgrass): 100% | Plant response rating, Buckwheat, Wild (buckwheat, wild; 16 g ai/ha): 100 | Plant response rating, Buckwheat, Wild (buckwheat, wild; 31 g ai/ha): 100 | Plant response rating, Buckwheat, Wild (buckwheat, wild; 62 g ai/ha): 100 | Plant response rating, Buckwheat, Wild (buckwheat, wild; 125 g ai/ha): 100 | Plant response rating, Buckwheat, Wild (buckwheat, wild; 250 g ai/ha): 100 | pest or weed control at 31 g/ha (barnyardgrass [2]; [9]): 20% | pest or weed control at 62 g/ha (barnyardgrass [2]; [10]): 10% | pest or weed control at 125 g/ha (barnyardgrass [2]; [11]): 60% | pest or weed control at 8 g/ha (barnyardgrass [2]; Echinochloa crus-galli, post-emergence, postemergence, 8 g ai/ha, scale 0 to 100, 0 no effect, 100 complete control, read-out: Plant response rating, Barnyardgrass): 5% | pest or weed control at 16 g/ha (barnyardgrass [2]; [12]): 10% | pest or weed control at 16 g/ha (deadnettle; Lamium amplexicaule, pre-emergence, 16 g ai/ha, scale 0 (no effect) to 100 (complete control), read-out: Plant response rating, Deadnettle): 55% | pest or weed control at 31 g/ha (deadnettle; Lamium amplexicaule, pre-emergence, 31 g ai/ha, scale 0-100, read-out: Plant response rating, Deadnettle): 100% | pest or weed control at 62 g/ha (deadnettle; Lamium amplexicaule, pre-emergence, 62 g ai/ha, scale 0-100, read-out: Plant response rating, Deadnettle): 100% | pest or weed control at 125 g/ha (deadnettle; Lamium amplexicaule, pre-emergence, 125 g ai/ha, scale 0-100, read-out: Plant response rating, Deadnettle): 100%
